“And” between values parts separate entries of the source, which are not always exact repeats. Equal entries are not always repeated.
Target: Genome polyprotein (dengue virus type 2, UniProt P29990)
Assay type: functional, Thailand/16681/1984

Genome polyprotein, sequence (P29990 1346-1475 limits assumed): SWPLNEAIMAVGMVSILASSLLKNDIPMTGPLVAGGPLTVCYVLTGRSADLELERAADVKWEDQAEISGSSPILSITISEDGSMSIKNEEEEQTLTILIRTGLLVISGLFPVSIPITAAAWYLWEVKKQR
Genome polyprotein, sequence (P29990 1476-2093 limits assumed): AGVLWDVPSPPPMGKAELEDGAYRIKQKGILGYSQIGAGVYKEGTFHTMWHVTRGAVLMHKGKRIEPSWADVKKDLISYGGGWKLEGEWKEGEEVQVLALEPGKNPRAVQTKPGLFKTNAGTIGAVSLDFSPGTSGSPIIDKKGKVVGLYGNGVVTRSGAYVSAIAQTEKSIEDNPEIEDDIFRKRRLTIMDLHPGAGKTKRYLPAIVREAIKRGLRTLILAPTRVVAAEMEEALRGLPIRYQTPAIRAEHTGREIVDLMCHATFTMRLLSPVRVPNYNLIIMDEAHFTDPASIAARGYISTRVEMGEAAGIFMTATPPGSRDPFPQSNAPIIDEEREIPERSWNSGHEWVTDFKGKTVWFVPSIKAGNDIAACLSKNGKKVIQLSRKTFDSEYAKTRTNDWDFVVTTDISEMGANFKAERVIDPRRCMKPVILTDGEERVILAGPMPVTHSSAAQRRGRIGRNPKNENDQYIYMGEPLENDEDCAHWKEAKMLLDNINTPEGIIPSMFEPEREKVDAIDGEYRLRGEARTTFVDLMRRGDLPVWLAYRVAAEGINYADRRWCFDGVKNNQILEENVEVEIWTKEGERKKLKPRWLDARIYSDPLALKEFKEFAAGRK

Work on NCc1ccc(-c2ncc(OCC3CCNCC3)nc2-c2ccc(C3CCOCC3)cc2)cc1 yielded an IC50 greater than 99.5 µM.

CCn1c(=O)c(N2CCCC[C@H](N3CCCC3)C2)nc2ccccc21 gave an IC50 greater than 99.5 µM.

For CCn1cc(-c2ccnc(N(C)C)c2)nc(N2CC[C@@H](CO)C2)c1=O, the IC50 was greater than 99.5 µM.

Work on N#Cc1ccccc1-c1ccc([C@H](NC(=O)OCc2ccccc2)C(=O)Nc2cccc(CN)c2)cc1 yielded an IC50 of 18.6 µM.

Molecule COc1ncccc1-c1ccc([C@@H](NC(=O)OCc2ccccc2)C(=O)Nc2cccc(CN)c2)cc1 has an IC50 of 23 µM.

CCNC(=O)[C@@H](NC(=O)OCc1ccccc1)c1ccc(OCc2ccccc2)cc1 gave an IC50 greater than 99.5 µM.

CCn1c(=O)c(N2C[C@H]3C[C@@H](O)CC[C@H]3C2)nc2ccccc21 gave an IC50 greater than 99.5 µM.

Molecule CCn1cc(-c2ccc(OC)c(C)c2)nc(N2CC[C@@H](CO)C2)c1=O has an IC50 greater than 99.5 µM.

NCc1cccc(NC(=O)[C@@H](NC(=O)OCc2ccccc2)c2ccc(-c3ccc4scnc4c3)cc2)c1 gave an IC50 of 42.9 µM.

In the case of Cn1cc(Nc2ccc(S(=O)(=O)Nc3ccc(Cl)cc3C(=O)O)cn2)cn1, the IC50 is reported as greater than 99.5 µM.

In the case of NCc1cccc(NC(=O)[C@@H](NC(=O)OCc2ccccc2)c2ccc(-c3ccnc(N)c3)cc2)c1, the IC50 is reported as greater than 99.5 µM.

Work on CCOc1ccc(F)cc1-c1cn(CC)c(=O)c(N2CC[C@@H](CO)C2)n1 yielded an IC50 greater than 99.5 µM.

O=C(NS(=O)(=O)C1CC1)c1cc(Cl)ccc1NS(=O)(=O)c1ccc(Oc2ccccc2Cl)cc1 showed an IC50 of 7.33 µM.

Work on CCc1ccc(-c2ccc([C@@H](NC(=O)OCc3ccccc3)C(=O)Nc3cccc(CN)c3)cc2)cc1 yielded an IC50 of 6.61 µM.

Work on CCn1cc(-c2cncc(OC)c2)nc(N2CC[C@@H](CO)C2)c1=O yielded an IC50 greater than 99.5 µM.

Work on CN1Cc2ccc(CNC(=O)[C@@H](NC(=O)OCc3ccccc3)c3ccc(OCc4ccccc4)cc3)cc2C1 yielded an IC50 greater than 99.5 µM.

CC[C@H]1CN2CCC[C@H]2CN1c1nc2ccccc2n(CC)c1=O showed an IC50 greater than 99.5 µM.

For CCn1c(=O)c(N2C[C@@H]3CN(C4CCC4)C[C@@H]3C2)nc2ccccc21, the IC50 was greater than 99.5 µM.

For CCn1c(=O)c(N2CC3(CCC3)C[C@@H]2C)nc2ccccc21, the IC50 was greater than 99.5 µM.

Work on CCn1cc(-c2cccc(CN(C)C)c2)nc(N2CC[C@@H](CO)C2)c1=O yielded an IC50 greater than 99.5 µM.

Molecule CC(C)c1cc(-c2ccc([C@@H](NC(=O)OCc3ccccc3)C(=O)Nc3cccc(CN)c3)cc2)on1 has an IC50 greater than 99.5 µM.

For CCn1cc(-c2ccccc2C(C)C)nc(N2CC[C@@H](CO)C2)c1=O, the IC50 was greater than 99.5 µM.

With NCc1cccc(NC(=O)[C@@H](NC(=O)OCc2ccccc2)c2ccc(-c3ccnc4[nH]ccc34)cc2)c1 the IC50 was greater than 99.5 µM.

CCn1cc(-c2ccc3c(c2)CCNC3)nc(N2CC[C@@H](CO)C2)c1=O showed an IC50 greater than 99.5 µM.

For CCn1cc(-c2ccccc2N)nc(N2CC[C@@H](CO)C2)c1=O, the IC50 was greater than 99.5 µM.

CCn1c(=O)c(N2C[C@@H]3CS(=O)(=O)C[C@@H]3C2)nc2ccccc21 gave an IC50 greater than 99.5 µM.

CCn1cc(-c2ccc3ocnc3c2)nc(N2CC[C@@H](CO)C2)c1=O showed an IC50 greater than 99.5 µM.

In the case of CCn1c(=O)c(N2CC[C@@H](CN3CCCCC3)C2)nc2ccccc21, the IC50 is reported as greater than 99.5 µM.

In the case of CCn1cc(-c2cccc(-n3cccn3)c2)nc(N2CC[C@@H](CO)C2)c1=O, the IC50 is reported as greater than 99.5 µM.

Cc1noc(C)c1-c1ccc([C@@H](NC(=O)OCc2ccccc2)C(=O)Nc2cccc(CN)c2)cc1 showed an IC50 greater than 99.5 µM.

CCn1cc(-c2cccc(OC)c2F)nc(N2CC[C@@H](CO)C2)c1=O gave an IC50 greater than 99.5 µM.

For CN1CCc2ccc(C(=O)N3CCNc4ccccc4C3)cc2C1, the IC50 was greater than 99.5 µM.

With NS(=O)(=O)c1ccc(N2CCC=C(c3cccc(O)c3)C2)c2ncccc12 the IC50 was greater than 99.5 µM.

O=C(O)c1cc(Cl)ccc1NS(=O)(=O)c1ccc(N[C@H]2CCCOC2)nc1 was tested, and the IC50 was greater than 99.5 µM.

CCn1c(=O)c(N2C[C@@H]3CCO[C@]3(COC)C2)nc2ccccc21 showed an IC50 greater than 99.5 µM.

Molecule CCn1cc(-c2cn(C)nc2C)nc(N2CC[C@@H](CO)C2)c1=O has an IC50 greater than 99.5 µM.

With CCn1c(=O)c(N2CCC[C@H]2c2noc(C)n2)nc2ccccc21 the IC50 was greater than 99.5 µM.

Cc1nc(-c2ccc([C@@H](NC(=O)OCc3ccccc3)C(=O)Nc3cccc(CN)c3)cc2)cs1 gave an IC50 greater than 99.5 µM.

CCn1c(=O)c(N2CC[C@@]3(COC(=O)N3)C2)nc2ccccc21 showed an IC50 greater than 99.5 µM.

In the case of NCc1cccc(NC(=O)[C@@H](NC(=O)OCc2ccccc2)c2ccc(C3=CCCOC3)cc2)c1, the IC50 is reported as greater than 99.5 µM.

CN1CC[C@H](C2CCN(S(=O)(=O)c3cc(F)cc(C(=O)O)c3)CC2)C1 gave an IC50 greater than 99.5 µM.

For CCn1cc(C(=O)O)nc(N2CC[C@@H](CO)C2)c1=O, the IC50 was greater than 99.5 µM.

For O=C(N[C@@H](C(=O)NCc1cccnc1)c1ccc(OCc2ccccc2)cc1)OCc1ccccc1, the IC50 was greater than 99.5 µM.

In the case of COc1cccc(-c2ccc([C@@H](NC(=O)OCc3ccccc3)C(=O)Nc3cccc(CN)c3)cc2)c1, the IC50 is reported as 9.12 µM and 6.13 µM and 6.64 µM.

Cc1cccc(-c2ccc([C@@H](NC(=O)OCc3ccccc3)C(=O)Nc3cccc(CN)c3)cc2)c1 gave an IC50 of 9.31 µM.

For CCn1c(=O)c(N2CCC[C@H]2c2cncc(Br)c2)nc2ccccc21, the IC50 was greater than 99.5 µM.

O=C(N[C@@H](C(=O)NCc1c[nH]cn1)c1ccc(OCc2ccccc2)cc1)OCc1ccccc1 was tested, and the IC50 was greater than 99.5 µM.

Cc1ccc(COc2ccc(S(=O)(=O)Nc3ccc(Cl)cc3C(=O)O)cc2)cc1 showed an IC50 of 9.45 µM.

O=C(N[C@@H](C(=O)NC1CCCCC1)c1ccc(OCc2ccccc2)cc1)OCc1ccccc1 gave an IC50 greater than 99.5 µM.

CCn1c(=O)c(N2CC[C@H](NC(=O)NC3CC3)C2)nc2ccccc21 was tested, and the IC50 was greater than 99.5 µM.

For NCc1cccc(NC(=O)[C@@H](NC(=O)OCc2ccccc2)c2ccc(-c3ccc4cn[nH]c4c3)cc2)c1, the IC50 was 6.06 µM and 6 µM and 5.75 µM.

With CCn1c(=O)c(N2C[C@H]3COC(C)(C)OC[C@H]3C2)nc2ccccc21 the IC50 was greater than 99.5 µM.

In the case of CN1CCc2ncc(NC(=O)[C@@H](NC(=O)OCc3ccccc3)c3ccc(OCc4ccccc4)cc3)cc2C1, the IC50 is reported as greater than 99.5 µM.

With CCn1c(=O)c(N2CC(S(=O)(=O)N3CCCC3)C2)nc2ccccc21 the IC50 was greater than 99.5 µM.

With NCc1cccc(NC(=O)[C@@H](NC(=O)OCc2ccccc2)c2ccc(-c3cccc4nonc34)cc2)c1 the IC50 was 11.6 µM and 5.73 µM.

With CS(=O)(=O)NC(=O)c1cc(Cl)ccc1NS(=O)(=O)c1ccc(Oc2ccccc2Cl)cc1 the IC50 was 12.2 µM.

O=C(N[C@@H](C(=O)NCc1ccncc1)c1ccc(OCc2ccccc2)cc1)OCc1ccccc1 showed an IC50 greater than 99.5 µM.

CCn1c(=O)c(N2CC[C@@H](Cc3ccncc3)C2)nc2ccccc21 was tested, and the IC50 was greater than 99.5 µM.

Molecule CCc1ccccc1-c1ccc([C@@H](NC(=O)OCc2ccccc2)C(=O)Nc2cccc(CN)c2)cc1 has an IC50 of 9.17 µM.

With CCn1cc(C2=CCCNC2)nc(N2CC[C@@H](CO)C2)c1=O the IC50 was greater than 99.5 µM.

CCn1cc(-c2ccc3nn(C)cc3c2)nc(N2CC[C@@H](CO)C2)c1=O showed an IC50 greater than 99.5 µM.

CCn1c(=O)c(N2CC3(CCCCC3)C[C@H]2CO)nc2ccccc21 was tested, and the IC50 was greater than 99.5 µM.

In the case of NCc1cccc(NC(=O)[C@@H](NC(=O)OCc2ccccc2)c2ccc(-c3ccc(N)nc3)cc2)c1, the IC50 is reported as greater than 99.5 µM.

Cn1cc(-c2ccc([C@@H](NC(=O)OCc3ccccc3)C(=O)Nc3cccc(CN)c3)cc2)cn1 was tested, and the IC50 was greater than 99.5 µM.

For CCn1cc(-c2c[nH]c3ncccc23)nc(N2CC[C@@H](CO)C2)c1=O, the IC50 was greater than 99.5 µM.

CCn1cc(-c2ccc(C(F)F)nc2)nc(N2CC[C@@H](CO)C2)c1=O showed an IC50 greater than 99.5 µM.

CCn1c(=O)c(N2C[C@H]3CN(C)CC[C@H]3C2)nc2ccccc21 was tested, and the IC50 was greater than 99.5 µM.

For COc1ccc(COc2ccc(S(=O)(=O)Nc3ccc(Cl)cc3C(=O)O)cc2)nc1, the IC50 was 74.1 µM.

NCc1cccc(NC(=O)[C@@H](NC(=O)OCc2ccccc2)c2ccc(-c3cncnc3)cc2)c1 showed an IC50 greater than 99.5 µM.

CC(C)(C)c1ncc(-c2ccc([C@@H](NC(=O)OCc3ccccc3)C(=O)Nc3cccc(CN)c3)cc2)o1 was tested, and the IC50 was greater than 99.5 µM.

For CCn1c(=O)c(N2CC[C@]3(CCCN(C)C3)C2)nc2ccccc21, the IC50 was greater than 99.5 µM.

CCn1c(=O)c(N2C[C@H]3OCCN(C(C)=O)[C@H]3C2)nc2ccccc21 gave an IC50 greater than 99.5 µM.

NCc1cccc(NC(=O)[C@@H](NC(=O)OCc2ccccc2)c2cccc(OCc3cncnc3)c2)c1 was tested, and the IC50 was greater than 99.5 µM.

O=C(N[C@@H](C(=O)Nc1cccnc1)c1ccc(OCc2ccccc2)cc1)OCc1ccccc1 gave an IC50 greater than 99.5 µM.

In the case of CCn1cc(-c2cnc3ccnn3c2)nc(N2CC[C@@H](CO)C2)c1=O, the IC50 is reported as greater than 99.5 µM.

For CCn1cc(-c2ccc(S(C)(=O)=O)cc2)nc(N2CC[C@@H](CO)C2)c1=O, the IC50 was greater than 99.5 µM.

CCn1c(=O)c(N2CC[C@@]3(CCCN3C)C2)nc2ccccc21 showed an IC50 greater than 99.5 µM.

For CNc1nc2cc(-c3ccc4c(c3)C[C@H](N)C4)ccc2o1, the IC50 was greater than 99.5 µM.

For Cc1ccc(F)c(-c2ccc([C@@H](NC(=O)OCc3ccccc3)C(=O)Nc3cccc(CN)c3)cc2)c1, the IC50 was 9.46 µM.

Work on NCc1cccc(NC(=O)[C@@H](NC(=O)OCc2ccccc2)c2ccc(-c3ccncc3F)cc2)c1 yielded an IC50 greater than 99.5 µM.

NCc1cccc(NC(=O)[C@@H](NC(=O)OCc2ccccc2)c2ccc(-c3cccnc3F)cc2)c1 showed an IC50 of 71.4 µM.

NCc1cccc(NC(=O)[C@@H](NC(=O)OCc2ccccc2)c2ccc(-c3cc4cccnc4s3)cc2)c1 showed an IC50 of 6.07 µM.

O=C(O)c1cc(Cl)c(F)cc1NS(=O)(=O)c1ccc(Oc2ccccc2)cc1 gave an IC50 of 13.1 µM.

Molecule COc1ccccc1-c1ccc([C@@H](NC(=O)OCc2ccccc2)C(=O)Nc2cccc(CN)c2)cc1 has an IC50 greater than 99.5 µM.

Molecule CCn1cc(-c2ccc(CN(C)C)cc2)nc(N2CC[C@@H](CO)C2)c1=O has an IC50 greater than 99.5 µM.

Work on CCn1nccc1-c1cn(CC)c(=O)c(N2CC[C@@H](CO)C2)n1 yielded an IC50 greater than 99.5 µM.

CC(C)(CO)NC(=O)[C@@H](NC(=O)OCc1ccccc1)c1ccc(OCc2ccccc2)cc1 showed an IC50 greater than 99.5 µM.

CCn1cc(-c2ccc([C@@H](NC(=O)OCc3ccccc3)C(=O)Nc3cccc(CN)c3)cc2)cn1 was tested, and the IC50 was greater than 99.5 µM.

For Cc1n[nH]cc1-c1ccc([C@@H](NC(=O)OCc2ccccc2)C(=O)Nc2cccc(CN)c2)cc1, the IC50 was greater than 99.5 µM.

Cn1cc(-c2ccc([C@@H](NC(=O)OCc3ccccc3)C(=O)Nc3cccc(CN)c3)cc2)ccc1=O showed an IC50 greater than 99.5 µM.

Work on CCn1c(=O)c(N2CCC[C@H]2CN2CCCC2)nc2ccccc21 yielded an IC50 greater than 99.5 µM.

CCn1cc(-c2cccc(-c3ccccc3)c2)nc(N2CC[C@@H](CO)C2)c1=O gave an IC50 greater than 99.5 µM.

For O=C(N[C@@H](C(=O)NCc1ccccn1)c1ccc(OCc2ccccc2)cc1)OCc1ccccc1, the IC50 was greater than 99.5 µM.

In the case of CCn1cc(-c2cn(C)nc2C(F)(F)F)nc(N2CC[C@@H](CO)C2)c1=O, the IC50 is reported as greater than 99.5 µM.

CCn1c(=O)c(N2CC[C@H](N3CCN(C)CC3)C2)nc2ccccc21 was tested, and the IC50 was greater than 99.5 µM.

With CCn1cc(-c2ccncc2F)nc(N2CC[C@@H](CO)C2)c1=O the IC50 was greater than 99.5 µM.

CCn1c(=O)c(N2CCC[C@H]2c2ncccn2)nc2ccccc21 gave an IC50 greater than 99.5 µM.

CCn1cc(-c2ccccc2C(=O)OC)nc(N2CC[C@@H](CO)C2)c1=O gave an IC50 greater than 99.5 µM.
